Columns and labels:
BTK = BTK (Homo sapiens (Human), UniProt Q06187); assay: In Vitro BTK Kinase Assay: Btk-PolyGAT-LS Assay; assay type: biochemical; conditions: ATP 10 μM, polyGAT 100 nM, BTK 0.25 nM
Description: In Vitro BTK Kinase Assay: Btk-PolyGAT-LS Assay
The purpose of the BTK in vitro assay is to determine compound potency against BTK through the measurement of IC50. Compound inhibition is measured after monitoring the amount of phosphorylation of a fluorescein-labeled polyGAT peptide (Invitrogen PV3611) in the presence of active BTK enzyme (Upstate 14-552), ATP, and inhibitor. The BTK kinase reaction was done in a black 96 well plate (costar 3694). For a typical assay, a […] aliquot of a ATP/peptide master mix (final concentration; ATP 10 μM, polyGAT 100 nM) in kinase buffer (10 mM Tris-HCl pH 7.5, 10 mM MgCl2, 200 μM Na3PO4, 5 mM DTT, 0.01% Triton X-100, and 0.2 mg/ml casein) is added to each well. Next, […] of a 4-fold, 40× compound titration in 100% DMSO solvent is added, followed by adding 15 uL of BTK enzyme mix in 1× kinase buffer (with a final concentration of 0.25 nM). The assay is incubated for 30 minutes before being stopped with […] of a 50 mM EDTA solution. Aliquots (5 uL) of the kinase reaction are transferred to a low volume white 384 well plate (Coming 3674), and 5 pL of a 2× detection buffer (Invitrogen PV3574, with 4 nM Tb-PY20 antibody, Invitrogen PV3552) is added. The plate is covered and incubated for 45 minutes at room temperature. Time resolved fluorescence (TRF) on Molecular Devices M5 (332 nm excitation; 488 nm emission; 518 nm fluorescein emission) is measured. IC50 values are calculated using a four parameter fit with 100% enzyme activity determined from the DMSO control and 0% activity from the EDTA control.
“†” represents an IC50 of greater than 1 μM and equal to or less than 10 μM. “††” represents an IC50 of greater than 10 nM and equal to or less than 1 μM (10 nM<IC50≤1 μM). “†††” represents an IC50 of greater than 1 nM and equal to or less than 10 nM (1 nM<IC50≤10 nM).

[1] = tested on: CD69 expression on CD19+ B cells in human whole blood; assay: In Vitro whole blood CD69 Assay; assay type: cell-based; conditions: B-cell, human heparinized whole blood, anti-human IgD stimulation
Description: In Vitro whole blood CD69 Assay
Human heparinized venous blood from health donors was aliquoted into 96-well plate and “spiked” with serial dilutions of formula I compounds in DMSO or with DMSO without drug. The final concentration of DMSO in all wells was 0.1%. The plate was incubated at 37° C. for 30 min. Drug-containing samples were stimulated with 0.1 μg/mL mouse anti-human IgD-dextran (1A^62) or 20 μg/mL polyclonal rabbit F(ab′)2 anti-human IgD. Phosphate-buffered saline (PBS) was added to the negative control unstimulated sample and the plates were incubated overnight (18 to 22 hours) at 37° C. Cells were stained with fluorochrome-conjugated anti-CD19 and anti-CD69 antibodies. Lyse/fix solution was used to remove red blood cells by hypotonic lysis and to fix the remaining cells, which were then analyzed by flow cytometry. CD19+ B cells were gated and analyzed for CD69 expression. The percentage of B cells expressing CD69 was plotted versus the log 10 of the concentration of the drug and the best-fit curves (variable Hill slope) were generated to obtain the IC50 value.

Chain of BTK (Q06187 whole entry): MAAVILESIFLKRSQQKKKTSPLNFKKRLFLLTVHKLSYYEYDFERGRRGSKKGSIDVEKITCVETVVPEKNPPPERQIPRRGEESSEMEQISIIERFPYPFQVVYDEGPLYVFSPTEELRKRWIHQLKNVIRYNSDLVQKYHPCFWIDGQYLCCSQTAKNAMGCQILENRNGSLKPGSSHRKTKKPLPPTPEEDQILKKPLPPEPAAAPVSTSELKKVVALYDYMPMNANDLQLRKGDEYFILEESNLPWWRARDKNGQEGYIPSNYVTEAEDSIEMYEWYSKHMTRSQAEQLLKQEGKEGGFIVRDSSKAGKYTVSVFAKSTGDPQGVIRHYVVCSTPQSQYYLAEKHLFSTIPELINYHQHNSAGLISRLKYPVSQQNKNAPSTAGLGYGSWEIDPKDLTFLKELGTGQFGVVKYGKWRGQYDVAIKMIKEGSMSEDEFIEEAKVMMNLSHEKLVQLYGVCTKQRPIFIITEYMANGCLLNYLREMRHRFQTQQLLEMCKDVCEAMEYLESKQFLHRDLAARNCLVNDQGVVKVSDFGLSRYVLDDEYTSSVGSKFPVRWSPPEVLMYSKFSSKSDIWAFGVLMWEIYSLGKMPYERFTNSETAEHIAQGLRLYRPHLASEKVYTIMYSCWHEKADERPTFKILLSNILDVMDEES

Row | Compound | IC50 (BTK) [µM] | IC50 [1] [µM]
1 | Cc1cc(-c2ncnn3cccc23)ccc1CN1CCNC(C)C1=O (stereo not shown) [Compound 1, 3-methyl-1-(2-methyl-4-(pyrrolo[2,1-f][1,2,4]triazin-4-yl)benzyl)piperazin-2-one] | 1 to 10 | ≥ 10
2 | Cc1cc(-c2ncnn3cccc23)ccc1CN1CCN(CC(C)C)C(C)C1=O (stereo not shown) [Compound 2, 4-isobutyl-3-methyl-1-(2-methyl-4-(pyrrolo[2,1-f][1,2,4]triazin-4-yl)benzyl)piperazin-2-one] | 0.01 to 1 | ≥ 10
3 | Cc1cc(-c2ncnn3cccc23)ccc1CN1CCN(C2CC(F)(F)C2)C(C)C1=O (stereo not shown) [Compound 3, 4-(3,3-difluorocyclobutyl)-3-methyl-1-(2-methyl-4-(pyrrolo[2,1-f][1,2,4]triazin-4-yl)benzyl)piperazin-2-one] | 1 to 10 | –
4 | Cc1cc(-c2ncnn3cc(-c4cnn(C)c4)cc23)ccc1CN1CCN(CC(C)C)C(C)C1=O (stereo not shown) [Compound 4, 4-isobutyl-3-methyl-1-(2-methyl-4-(6-(1-methyl-1H-pyrazol-4-yl)pyrrolo[2,1-f][1,2,4]triazin-4-yl)benzyl)piperazin-2-one] | 0.001 to 0.01 | ≥ 10

— patent US12565500B2, “Substituted pyrrolo[1,2-b]pyridazines and pyrrolo[2,1-f][1,2,4]triazines as Btk inhibitors” (BIOGEN MA INC., priority 2019, dated 2026)
